Measured values: PubChem BioAssay (NCI)
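96-well plates; 48 h exposure; 5 concentrations. Endpoints by linear interpolation between flanking doses. Not reached: highest tested concentration assigned. The concentration for 50% growth inhibition is given as GI50. TGI is the concentration that stops growth completely.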

Legend:
Experiment in all cases: inhibition of tumour cell growth, NCI panel, 48 h
[1] = system: 786-0 renal
[2] = system: A498 renal
[3] = system: A549 NSCLC
[4] = system: ACHN renal
[5] = system: BT-549 breast
[6] = system: CAKI-1 renal
[7] = system: COLO 205 colon
[8] = system: DU-145 prostate
[9] = system: EKVX NSCLC
[10] = system: HCC-2998 colon
[11] = system: HCT-116 colon
[12] = system: HCT-15 colon
[13] = system: HL-60(TB) leukemia
[14] = system: HOP-62 NSCLC
[15] = system: HOP-92 NSCLC
[16] = system: HS 578T breast
[17] = system: HT29 colon
[18] = system: KM12 colon
[19] = system: LOX IMVI melanoma
[20] = system: M14 melanoma
[21] = system: MALME-3M melanoma
[22] = system: MCF7 breast
[23] = system: MDA-MB-231 breast
[24] = system: MDA-MB-435
[25] = system: MOLT-4 leukemia
[26] = system: NCI-H226 lung
[27] = system: NCI-H23 lung
[28] = system: NCI-H460 lung
[29] = system: NCI-H522 lung
[30] = system: NCI/ADR-RES ovarian
[31] = system: OVCAR-3 ovarian
[32] = system: OVCAR-4 ovarian
[33] = system: OVCAR-5 ovarian
[34] = system: OVCAR-8 ovarian
[35] = system: PC-3 prostate
[36] = system: RPMI-8226 leukemia
[37] = system: RXF 393 renal
[38] = system: SF-268 CNS
[39] = system: SF-295 CNS
[40] = system: SF-539 CNS
[41] = system: SK-MEL-2 melanoma
[42] = system: SK-MEL-28 melanoma
[43] = system: SK-MEL-5 melanoma
[44] = system: SK-OV-3 ovarian
[45] = system: SN12C renal
[46] = system: SNB-19 CNS
[47] = system: SNB-75 CNS
[48] = system: SR leukemia
[49] = system: SW-620 colon
[50] = system: T-47D breast
[51] = system: TK-10 renal
[52] = system: U251 CNS
[53] = system: UACC-257 melanoma
[54] = system: UACC-62 melanoma
[55] = system: UO-31 renal
[56] = system: IGROV1 ovarian
[57] = system: K-562 leukemia

NCCCCCCCCCCn1c2c(c3ccccc3c1=O)C(=O)c1ccccc1-2
GI50 [1]: 4.8 µM
TGI [1]: 19.4 µM
GI50 [2]: 13.1 µM
TGI [2]: 33.7 µM
GI50 [3]: 11.5 µM
TGI [3]: 37 µM
GI50 [4]: 6 µM
TGI [4]: 18.2 µM
GI50 [5]: 5.64 µM
TGI [5]: 19.8 µM
GI50 [6]: 14.7 µM
TGI [6]: 32.1 µM
GI50 [7]: 3.58 µM
TGI [7]: 12.7 µM
GI50 [8]: 3.46 µM
TGI [8]: 11.2 µM
GI50 [9]: 17.3 µM
TGI [9]: 37.8 µM
GI50 [10]: 6.14 µM
TGI [10]: 19 µM
GI50 [11]: 2.74 µM
TGI [11]: 7.66 µM
GI50 [12]: 4.51 µM
TGI [12]: 16.9 µM
GI50 [13]: 1.77 µM
TGI [13]: 3.44 µM
GI50 [14]: 4.84 µM
TGI [14]: 17.3 µM
GI50 [15]: 2.74 µM
TGI [15]: 7.49 µM
GI50 [16]: 13.6 µM
TGI [16]: 36.4 µM
GI50 [17]: 1.89 µM
TGI [17]: 3.75 µM
GI50 [18]: 5.85 µM
TGI [18]: 21.9 µM
GI50 [19]: 2.65 µM
TGI [19]: 7.06 µM
GI50 [20]: 4.72 µM
TGI [20]: 16 µM
GI50 [21]: 13.2 µM
TGI [21]: 33.9 µM
GI50 [22]: 4.67 µM
TGI [22]: 20.2 µM
GI50 [23]: 5.22 µM
TGI [23]: 18 µM
GI50 [24]: 11.8 µM
TGI [24]: 27.9 µM
GI50 [25]: 1.81 µM
TGI [25]: 3.32 µM
GI50 [26]: 20.4 µM
TGI [26]: 47.1 µM
GI50 [27]: 14.9 µM
TGI [27]: 32.6 µM
GI50 [28]: 4.06 µM
TGI [28]: 18.5 µM
GI50 [29]: 2.84 µM
TGI [29]: 8.4 µM
GI50 [30]: 10.9 µM
TGI [30]: 28.5 µM
GI50 [31]: 10.8 µM
TGI [31]: 27.3 µM
GI50 [32]: 8.7 µM
TGI [32]: 25.1 µM
GI50 [33]: 4.52 µM
TGI [33]: 15.3 µM
GI50 [34]: 3.34 µM
TGI [34]: 56.9 µM
GI50 [35]: 2.16 µM
TGI [35]: 4.54 µM
GI50 [36]: 2.16 µM
TGI [36]: 4.47 µM
GI50 [37]: 15.2 µM
TGI [37]: 36.7 µM
GI50 [38]: 11.7 µM
TGI [38]: 50.3 µM
GI50 [39]: 6.48 µM
TGI [39]: 22 µM
GI50 [40]: 1.83 µM
TGI [40]: 3.52 µM
GI50 [41]: 2.04 µM
TGI [41]: 4.41 µM
GI50 [42]: 3.97 µM
TGI [42]: 14.8 µM
GI50 [43]: 8.25 µM
TGI [43]: 21.3 µM
GI50 [44]: 18.7 µM
TGI [44]: 35 µM
GI50 [45]: 3.32 µM
TGI [45]: 9.41 µM
GI50 [46]: 8.31 µM
TGI [46]: 28 µM
GI50 [47]: 5.01 µM
TGI [47]: 17.5 µM
GI50 [48]: 1.86 µM
TGI [48]: 3.53 µM
GI50 [49]: 2.33 µM
TGI [49]: 5.5 µM
GI50 [50]: 11.4 µM
TGI [50]: 39 µM
GI50 [51]: 6.55 µM
TGI [51]: 20.9 µM
GI50 [52]: 10.1 µM
TGI [52]: 24.7 µM
GI50 [53]: 21.2 µM
TGI [53]: 44.8 µM
GI50 [54]: 13.7 µM
TGI [54]: 29.4 µM
GI50 [55]: 6.16 µM
TGI [55]: 18.8 µM

Clc1ccc2c(c1)C(Br)c1cc(Cl)cc(Cl)c1-2 (centres undefined)
GI50 [1]: > 100 µM
TGI [1]: > 100 µM
GI50 [2]: > 100 µM
TGI [2]: > 100 µM
GI50 [3]: > 100 µM
TGI [3]: > 100 µM
GI50 [4]: > 100 µM
TGI [4]: > 100 µM
GI50 [5]: 3.56 µM
TGI [5]: 41.6 µM
GI50 [6]: 56.4 µM
TGI [6]: > 100 µM
GI50 [7]: > 100 µM
TGI [7]: > 100 µM
GI50 [8]: > 100 µM
TGI [8]: > 100 µM
GI50 [9]: 2.82 µM
TGI [9]: > 100 µM
GI50 [10]: > 100 µM
TGI [10]: > 100 µM
GI50 [11]: 8.74 µM
TGI [11]: > 100 µM
GI50 [12]: 74.5 µM
TGI [12]: > 100 µM
GI50 [13]: > 100 µM
TGI [13]: > 100 µM
GI50 [14]: > 100 µM
TGI [14]: > 100 µM
GI50 [15]: 12.4 µM
TGI [15]: > 100 µM
GI50 [16]: > 100 µM
TGI [16]: > 100 µM
GI50 [17]: > 100 µM
TGI [17]: > 100 µM
GI50 [56]: 18.6 µM
TGI [56]: > 100 µM
GI50 [57]: 8.74 µM
TGI [57]: > 100 µM
GI50 [18]: > 100 µM
TGI [18]: > 100 µM
GI50 [19]: 2.46 µM
TGI [19]: > 100 µM
GI50 [20]: 3.35 µM
TGI [20]: 35.7 µM
GI50 [21]: 3.49 µM
TGI [21]: > 100 µM
GI50 [22]: 20.5 µM
TGI [22]: > 100 µM
GI50 [23]: 30.8 µM
TGI [23]: > 100 µM
GI50 [24]: 5.19 µM
TGI [24]: > 100 µM
GI50 [25]: 10.8 µM
TGI [25]: > 100 µM
GI50 [26]: 2.75 µM
TGI [26]: 34.8 µM
GI50 [27]: 2.83 µM
TGI [27]: 36.8 µM
GI50 [28]: > 100 µM
TGI [28]: > 100 µM
GI50 [29]: 2.53 µM
TGI [29]: > 100 µM
GI50 [30]: 42.7 µM
TGI [30]: > 100 µM
GI50 [31]: > 100 µM
TGI [31]: > 100 µM
GI50 [32]: 71.5 µM
TGI [32]: > 100 µM
GI50 [33]: > 100 µM
TGI [33]: > 100 µM
GI50 [34]: 28.6 µM
TGI [34]: > 100 µM
GI50 [35]: > 100 µM
TGI [35]: > 100 µM
GI50 [36]: 38.9 µM
TGI [36]: > 100 µM
GI50 [37]: 27 µM
TGI [37]: 86.6 µM
GI50 [38]: 29.9 µM
TGI [38]: > 100 µM
GI50 [39]: > 100 µM
TGI [39]: > 100 µM
GI50 [40]: 82.5 µM
TGI [40]: > 100 µM
GI50 [41]: 33.8 µM
TGI [41]: > 100 µM
GI50 [42]: > 100 µM
TGI [42]: > 100 µM
GI50 [43]: 6.81 µM
TGI [43]: 72.3 µM
GI50 [44]: > 100 µM
TGI [44]: > 100 µM
GI50 [45]: 3.84 µM
TGI [45]: > 100 µM
GI50 [46]: > 100 µM
TGI [46]: > 100 µM
GI50 [47]: 19 µM
TGI [47]: > 100 µM
GI50 [48]: 4.34 µM
TGI [48]: > 100 µM
GI50 [49]: 5.46 µM
TGI [49]: > 100 µM
GI50 [50]: > 100 µM
TGI [50]: > 100 µM
GI50 [51]: > 100 µM
TGI [51]: > 100 µM
GI50 [52]: > 100 µM
TGI [52]: > 100 µM
GI50 [53]: > 100 µM
TGI [53]: > 100 µM
GI50 [54]: 39.9 µM
TGI [54]: > 100 µM
GI50 [55]: 67.7 µM
TGI [55]: > 100 µM
